“Also recorded” adds a separate entry of the source.
How the values were obtained:
airway epithelia in mice = assay: MCC number in airway epithelium of Foxj1-GFP mice after intraperitoneal GSI; type: in vivo, mouse
Experimental: 10-40 week age-matched male and female Foxj1-GFP mice were given semagacestat or vehicle by intraperitoneal (IP) administration. In the first experiment, semagacestat was administered at 0.1 mg/kg and 1 mg/kg twice daily for three days and compared to vehicle alone. Mice were sacrificed on day 7. […] In approximately similar sized, PFA-fixed airways, nuclei (red; DAPI) were scored either as MCCs (green; GFP) or non-ciliated cells (absence of GFP). Acetylated tubulin (blue) marks cilia. Samples were blinded for treatment group prior to scoring.
In the second experiment, vehicle and semagacestat were administered once daily for 5 consecutive days per week for three weeks, with a semagacestat dose of 1 mg/kg. An important observed toxicity in multiple GSI clinical trials, including large Alzheimer's Disease trials, was gastrointestinal toxicity. As a surrogate measure of GI toxicity, we monitored body weight throughout the experiment. Body weight was measured on Days 1, 9, 24 and 30, and mice were sacrificed on day 31.
The impact of LY450139 in mouse models of neurodegeneration has been studied extensively (27,28). In these models, LY450139 were administered systemically for weeks to months at a time at up to 100 mg/kg. It was sought to determine if a substantially lower dose administered for a shorter duration would be sufficient to induce an increase in the proportion of multiciliated cells in the intact airway epithelium of healthy adult mice. Mice were first treated with 1 or 0.1 mg/kg of LY450139, 10 mg/kg DAPT or vehicle control twice daily for three consecutive days via intraperitoneal injection and then assessed on day 7 (FIG. 42A). To quantitate multiciliated cells, treatments were carried out in Foxj1/EGFP transgenic mice that expresses cytoplasmic GFP under the multiciliated cell specific Foxj1 promoter (32). Multiciliated cell number was quantitated in airways of similar size in lung tissue sections. Cells were identified by DAPI nuclear staining and were counted as multiciliated if the DAPI staining overlapped with GFP signal (FIG. 42B).
Mouse husbandry and GSI treatment in mice. Foxj1/EGFP mice have been previously described (32,44). 10-40 week age-matched male and female Foxj1/EGFP mice were treated with LY450139 or vehicle control by intraperitoneal (IF) administration. In the first experiment, 0.1 mg/kg, or 1 mg/kg LY450139, 10 mg/kg DAPT or saline vehicle was administered twice daily for three consecutive days, then the mice were sacrificed on day 7. In the second experiment, 1 mg/kg LY450139 or saline vehicle was administered once daily for five consecutive days per week for three weeks, then the mice were sacrificed on day 30. Body weight was monitored as a surrogate measure of GI toxicity. For both studies, the lungs were cryoembedded en bloc in OCT compound (Thermo Fisher). Cryosections were formalin fixed, then labeled with anti-GFP and acetylated α-Tubulin antibodies and stained with DAPI to mark nuclei. Images were acquired using a Leica SP8 confocal microscope and analyzed by three independent blinded investigators. In airways of approximately uniform size viewed in cross section, cells were first identified by DAPI signal, and then scored either as multiciliated cells (GFP positive) or nonciliated cells (GFP negative). Ac. α-Tubulin signal was used as an additional identifying feature for multiciliated cells. All procedures involving animals were approved by the Institutional Animal Care and Use Committee of Stanford University School of Medicine in accordance with established guidelines for animal care.

[1] = system: primary cystic fibrosis airway epithelial cells; assay: MCC formation in cystic fibrosis airway epithelial cultures; type: cell-based, human; details: for multiciliated cell formation in mature CF cultures: mature (ALI+30d) CF cultures treated one week (ALI+30 to +37d); for MCC differentiation with semagacestat in combination with Lumacaftor (and Ivacaftor): semagacestat ALI+0-21d, Lumacaftor ALI+19-21d, Ivacaftor ten minutes, wild-type and CF cultures; for MCC/total cell ratio in CF patient-derived cultures: treated during differentiation only (ALI+0 to +21d), homemade medium
Experimental: To assess the effects of combining semagacestat and CFTR modulator treatment, wild-type control and CF (F508AIF5080) HNEC cultures were grown to maturity with or without semagacestat from ALI+0-21d and cultures were treated with or without Lumacaftor (VX-809) from ALI+19-21d and Ivacaftor (VX-770) for ten minutes prior to fixation. PFA fixed membranes were then stained for Acetylated tubulin (green; MCCs) and E-Cadherin (red).
Primary healthy and cystic fibrosis airway epithelial cells were treated with semagacestat (LY45139) during differentiation only (ALI+0 to +21 d) and labeled at ALI+21d with anti-acetylated α-Tubulin (green) and ECAD (red) antibodies. […] Restoration of a healthy MCC/total cell ratio is expected to improve mucociliary clearance.
Mature (ALI+30d) primary cystic fibrosis human airway epithelial cells were treated with DAPT for one week (ALI+30 to +37d), then labeled with anti-acetylated α-Tubulin (green) and ECAD (red) antibodies.
As observed in healthy HNECs, GSI-induced multiciliated cells in CF HNECs are structurally normal, and GSI treatment in both differentiating and mature CF cultures can mitigate multiciliated cell loss (FIG. 41, 43A-B).
Primary human nasal epithelial cell (HNEC) cultures. […] Primary air-liquid interface (ALI) culture of nasal epithelial cells from passage 0 (P0) or P1 basal stem cells was carried out as previously described (24,30). Briefly, cells are removed from cytobrushes with gentle enzymatic digestion. P0 HNEC cultures are initiated by seeding freshly isolated cells onto Collagen I coated Transwell filters. P1 HNEC cultures are initiated from basal cells that were first expanded on Collagen I coated plastic dishes in proliferation medium supplemented with Y-27632 (ROCK inhibitor, 10 μM), DMH-1 (BMP inhibitor, 1 μM), A-83-01, (TGF-β inhibitor, 1 μM), and CHIR99021 (WNT agonist, 1 μM)(42), all from Selleckchem. HNECs seeded onto Transwells are initially cultured submerged in proliferation medium until confluency, then lifted to ALI (considered as ALI+0d of culture) by supplying differentiation medium only from the bottom compartment. HNECs are considered mature at ALI+21d of culture. Healthy and CF HNECs used in the study were cultured in homemade media (24). CF HNECs used for the Ussing chamber measurements only were cultured in Pneumacult Ex+(proliferation) and Pneumacult ALI (differentiation) media (Stemcell). […] Healthy HNECs were treated with 10 ng/ml recombinant human IL-13 (RnD Systems).

Compound	number of multiciliated cells in airways (airway epithelia in mice; 10 mg/kg DAPT IP twice daily for three days, assessed day 7)	multiciliated cell formation in mature CF cultures [1]	multiciliated cell formation in mature CF cultures ([1]; listed as DAFT)	ratio of ciliated to non-ciliated cells / multiciliated cell number in airways (airway epithelia in mice; 0.1 mg/kg IP twice daily for three days, assessed day 7)	ratio of ciliated to non-ciliated cells / multiciliated cell number in airways (airway epithelia in mice; 0.1 mg/kg IP twice daily for three days, assessed day 7, listed as LY450139)	ratio of ciliated to non-ciliated cells / multiciliated cell number in airways (airway epithelia in mice; 1 mg/kg IP once daily, 5 consecutive days per week for three weeks, assessed day 30/31)	ratio of ciliated to non-ciliated cells / multiciliated cell number in airways (airway epithelia in mice; 1 mg/kg IP once daily, 5 consecutive days per week for three weeks, assessed day 30/31, listed as LY450139)	ratio of ciliated to non-ciliated cells / multiciliated cell number in airways (airway epithelia in mice; 1 mg/kg IP twice daily for three days, assessed day 7)	ratio of ciliated to non-ciliated cells / multiciliated cell number in airways (airway epithelia in mice; 1 mg/kg IP twice daily for three days, assessed day 7, listed as LY450139)	MCC differentiation with semagacestat in combination with Lumacaftor (and Ivacaftor) [1]	MCC differentiation with semagacestat in combination with Lumacaftor (and Ivacaftor) ([1]; listed as Semagacestat)	MCC response of CF patients not eligible for Trikafta ([1]; semagacestat alone, not shown)	MCC/total cell ratio in CF patient-derived cultures ([1]; listed as LY45139)	MCC/total cell ratio in CF patient-derived cultures ([1]; listed as LY450139)
C[C@H](NC(=O)Cc1cc(F)cc(F)c1)C(=O)NC(C(=O)OC(C)(C)C)c1ccccc1 (some centres unmarked) [DAPT]	modest, but statistically significant increase in the number of multiciliated cells	induces the formation of additional multiciliated cells in mature cystic fibrosis cultures; also recorded: induces the formation of additional multiciliated cells in mature CF cultures	induces the formation of additional multiciliated cells in mature cystic fibrosis cultures	–	–	–	–	–	–	–	–	–	–	–
CC(C)[C@H](O)C(=O)N[C@@H](C)C(=O)N[C@@H]1C(=O)N(C)CCc2ccccc21 [semagacestat, (2S)-2-hydroxy-3-methyl-N-[(1 S)-1-methyl-2-oxo-2-[[(1 S)-2,3,4,5-tetrahydro-3-methyl-2-oxo-1H-3-benzazepin-1-yl]amino]ethyl]-butamide]	–	–	–	increase in the ratio of ciliated to non-ciliated cells	trend towards more multiciliated cells that did not reach statistical significance	significant increase in the ratio of ciliated to non-ciliated cells	induced an increase in the proportion of multiciliated cells; also recorded: efficacious; also recorded: increased multiciliated cell number	increase in the ratio of ciliated to non-ciliated cells	modest, but statistically significant increase in the number of multiciliated cells; also recorded: sufficient to increase multiciliated cell numbers; also recorded: increased multiciliated cell number	as well as or better than cultures treated with semagacestat alone; also recorded: no significant decrease in semagacestat-induced MCC response was seen	effective at increasing the percentage of MCCs in the presence of Lumacaftor	respond to semagacestat alone similarly to those on corrector therapy	effective in increasing MCC/total cell ratio	similarly normalized proportion of multiciliated cells; also recorded: restores multiciliated cell numbers in CF cultures; also recorded: increases multiciliated cell number in CF cultures
